For one test, the target named is EP300 BRD (Homo sapiens (Human), UniProt Q09472). In words: EP300 AlphaScreen bromodomain (BRD) binding test. As for the experimental part:
CBP and EP300AlphaScreen Test:
• 1. Prepare 1× concentration of test buffer • 2. Preparation of compound
The compound was firstly diluted in a ratio of 1:1000 relative to the final concentration using a Precision automatic sampler (by 3× gradient dilution method): • 1) 50 μL of compound solution with a storage concentration of 10 mM was transferred to A2 well of a 96-well plate using an Echo automatic sampler. • 2) 30 μL of DMSO was transferred to well A1, and wells A3 to A12 with Precision™. • 3) 15 μL solution was transferred from A2 to A3 by Precision, and this operation was sequentially repeated until 15 μL solution was transferred from well A10 to well A11. Thus, a 1:3 gradient dilution was completed. • 4) The compound plate was centrifuged at a speed of 1000 r/min for one minute. • 3. Preparation of test plate
20 nL of solution was transferred from each concentration well of the compound plate to the test plate using an Echo automatic sampler: from well A1 of the preparation plate to wells A1 and A2 of the test plate, and from well A2 of the preparation plate to wells A3 and A4 of the test plate. • 4. Binding test of bromodomain (BRD) • 1) Preparation of 2-fold solution of protein and polypeptide
The protein and polypeptide were dissolved in a 1× concentration of detection buffer. • 2) 10 μL of protein and polypeptide solution was transferred to each well in columns 3 to 24 in the test plate, and 10 μL of 1× test buffer was transferred to wells in columns 1 to 2 in the test plate as negative control. • 3) The test plate was centrifuged at a speed of 1000 r/min for one minute. • 4) The test plate was incubated at room temperature for 15 min. • 5) A 2-fold receptor and donor solution was prepared by dissolving acceptor and donor beads with one-fold test buffer. • 6) 2-fold receptor and donor solutions were transferred to the test plate.
15 μL of acceptor and donor solution was added and light was avoided. • 7) The test plate was centrifuged at a speed of 1000 r/min for one minute and then incubated at room temperature for 60 min. • 5. The Endpoints were Read in EnSpire and Alpha Modes. • 6. Curve fitting
The experimental data was entered into an Excel document and the inhibition rate Inh % was calculated using equation (1): Inh %=(Max−Signal)/(Max−Min)×100 Equation (1): wherein, Max: control containing DMSO, Min: low control containing DMSO,
The obtained data were entered into the XL-Fit software, and the IC50 value was calculated using equation (2): Y=Bottom+(Top−Bottom)/(1+10^((Log IC50−X)×Hill Slope)) Equation (2): II. Experimental Results

Another test has as its system MCF-7. The experiment in a line: Proliferation of MCF-7 breast cancer cells (CCK-8). It is filed as cell-based. Particulars: Homo sapiens, MCF7; breast cancer cell line MCF-7; read-out: IC50 against MCF-7. As for the experimental part: (§1) • (1) CWR22RV1 prostate cancer cells were subcultured in cell culture medium, and well-grown cells were inoculated into 96-well plates with 80 μL per well and 1500 cells per well, and then the plate was cultured overnight at 37° C. in a 5% CO2 incubator. • (2) Drug was prepared as 30 mM of stock solution with dimethylsulfoxide (DMSO). Prior to use, the stock solution was diluted in a ratio of 1:3 with DMSO and then further diluted in a ratio of 1:3 to obtain 9 gradient concentrations. Each concentration of compound was diluted in a ratio of 1:200 with culture medium (to ensure the concentration of DMSO in the culture system was 0.1%). Two wells were set for each concentration. 20 μL of diluted compound solution was added to the cell culture well (with a final concentration of 10 μM, 3.3 μM, 1.1 μM, etc.), and then the plate was gently shaken to mix well. In addition, three negative control wells containing only cells and three blank control wells containing only culture medium (6 wells being each added with DMSO diluted in a ratio of 1:200 using 20 μL of culture medium) were included. 2. Test Results: • (1) After the plate was cultured for 6 days, 10 μL of CCK-8 was added to each well, and then the plate was continually cultured in a 5% CO2 incubator at 37° C. for 2.5 h. • (2) The absorbance (OD value) was measured at 450 nm with a microplate reader. • (3) Data were analyzed using the Dose-response-inhibition equation in the software GraphPad Prisms 6 to obtain IC50 values. 3. Experimental Results
(§2) Using the same method as in Example 2, CWR22RV1 cells were replaced with tumor cells in Table 3, and for the inhibitory activities against these tumor cells, the IC50 values (nM) of the compounds according to the present invention were tested and calculated.

Another test deals with MOLM-16. In words: Proliferation of MOLM-16 leukemia cells (CCK-8). The following applies: MOLM16; leukemia cell line MOLM-16; read-out: IC50 against MOLM-16. It is filed as cell-based. As for the experimental part:
as §1, §2

The subject of a further test is CWR22RV1 cells. In words: Combination with CDK4/6 inhibitor palbociclib, proliferation of CWR22RV1 prostate cancer cells. Format: cell-based. The following applies: for IC50: read-out: IC50 against CWR22RV1 cells. As for the experimental part: Prior to use, the stock solution was diluted in a ratio of 1:3 with DMSO and then further diluted in a ratio of 1:3 to obtain 9 gradient concentrations. Each concentration of compound was diluted in a ratio of 1:200 with culture medium (to ensure the concentration of DMSO in the culture system was 0.1%). Two wells were set for each concentration. 20 μL of diluted compound solution was added to the cell culture well (with a final concentration of 10 μM, 3.3 μM, 1.1 μM, etc.); the stock solution of palbociclib was diluted with the culture medium as 500 nM, 150 nM, 50 nM, 5 nM, respectively, and then 20 μL of diluted palbociclib solution was added to the cell culture well ([…]). The plate was gently shaken to mix well. In addition, three negative control wells containing only cells and three blank control wells containing only culture medium (6 wells being each added with DMSO diluted in a ratio of 1:200 using 20 μL of culture medium) were included. 2. Test Results: • (1) After the plate was cultured for 6 days, 10 μL of CCK-8 was added to each well, and then the plate was continually cultured in a 5% CO2 incubator at 37° C. for 2.5 h. • (2) The absorbance (OD value) was measured at 450 nm with a microplate reader. • (3) Data were analyzed using the Dose-response-inhibition equation in the software GraphPad Prisms 6 to obtain IC50 values. 3. Experimental Results

A further test deals with LNCAP. In words: Proliferation of LNCAP prostate cancer cells (CCK-8). Particulars: Homo sapiens; prostate cancer cell line LNCAP; read-out: IC50 against LNCAP. It is filed as cell-based. As for the experimental part: as §1, §2

Like-named read-outs stand apart in the source and are kept apart here.

Sequence of EP300 BRD (Q09472 1049-1156): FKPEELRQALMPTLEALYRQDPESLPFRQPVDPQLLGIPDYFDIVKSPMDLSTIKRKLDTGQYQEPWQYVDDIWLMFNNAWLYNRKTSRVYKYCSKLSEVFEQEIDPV

For `CCO[C@H]1CC[C@H](n2c([C@@H]3CCOC(=O)N3c3ccc(Cl)c(F)c3)nc3cc(-c4c(C)noc4C)ccc32)CC1` [Compound 172, (S)-3-(4-chloro-3-fluorophenyl)-4-(5-(3,5-dimethylisoxazol-4-yl)-1-((trans)-4-ethoxycyclohexyl)-1H-benzo[d]imidazol-2-yl)-1,3-oxazinane-2-one], the IC50 on EP300 BRD was 2.1 nM; in the test with MCF-7 it was below 500 nM; in the test with MOLM-16, below 500 nM; in the test on CWR22RV1 cells (CWR22Rv1, 172 in combination with 10 nM palbociclib), 26 nM; with CWR22RV1 cells (CWR22Rv1, 172 in combination with 100 nM palbociclib) it was below 1 nM; in the test on CWR22RV1 cells (CWR22Rv1, 172 in combination with 100-300 nM of palbociclib), below 1 nM. Moreover, the IC50 with CWR22RV1 cells (CWR22Rv1, administrated alone) was 1500 nM; in the test with LNCAP, below 500 nM. Further, the “effect of combination with palbociclib on CWR22RV1 prostate cancer cells” value with CWR22RV1 cells (compound 172 + palbociclib, in words) was “synergistic inhibitory effect”.
